Measured values as given in the supplement of paper PMC10307832.

Assays:
Assay in all cases: relative viability (nuclei count vs DMSO), 5 days (fraction); higher = more cells survive
R406 + Crizotinib = compound: COc1cc(Nc2ncc(F)c(Nc3ccc4c(n3)NC(=O)C(C)(C)O4)n2)cc(OC)c1OC [R406] + C[C@@H](Oc1cc(-c2cnn(C3CCNCC3)c2)cnc1N)c1c(Cl)ccc(F)c1Cl [Crizotinib] (partner 1 µM)
Procedure, shortened: (§1)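 Lung cancer cell lines in 1536-well plates were dosed by pin tool the day after seeding, either with one drug alone or with a fixed anchor-drug dose plus five library-drug doses (not always all listed) in √10 steps. After 5 days, cells were fixed and their nuclei stained in one step (final 0.05% Triton X-100, 1% formaldehyde, 1 ug/ml Hoechst), then counted on 4× images. Relative viability is the nuclei count in treated wells divided by that in vehicle wells. Values are medians of duplicate plates.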

Daporinad + Pictilisib = compound: O=C(/C=C/c1cccnc1)NCCCCC1CCN(C(=O)c2ccccc2)CC1 [Daporinad] + CS(=O)(=O)N1CCN(Cc2cc3nc(-c4cccc5[nH]ncc45)nc(N4CCOCC4)c3s2)CC1 [Pictilisib] (partner 1 µM)
Procedure, shortened: as §1

R406 + Linsitinib = compound: COc1cc(Nc2ncc(F)c(Nc3ccc4c(n3)NC(=O)C(C)(C)O4)n2)cc(OC)c1OC [R406] + C[C@]1(O)C[C@@H](c2nc(-c3ccc4ccc(-c5ccccc5)nc4c3)c3c(N)nccn32)C1 [Linsitinib] (partner 1 µM)
Procedure, shortened: as §1

R406 + Foretinib = compound: COc1cc(Nc2ncc(F)c(Nc3ccc4c(n3)NC(=O)C(C)(C)O4)n2)cc(OC)c1OC [R406] + COc1cc2c(Oc3ccc(NC(=O)C4(C(=O)Nc5ccc(F)cc5)CC4)cc3F)ccnc2cc1OCCCN1CCOCC1 [Foretinib] (partner 0.25 µM)
Procedure, shortened: as §1

| Cell Line | relative viability (R406 + Crizotinib; first compound 0.08 µM) | relative viability (R406 + Crizotinib; first compound 0.253 µM) | relative viability (R406 + Crizotinib; first compound 0.8 µM) | relative viability (R406 + Crizotinib; first compound 2.53 µM) | relative viability (R406 + Crizotinib; first compound 8 µM) | relative viability (Daporinad + Pictilisib; first compound 0.0005 µM) | relative viability (Daporinad + Pictilisib; first compound 0.001581 µM) | relative viability (Daporinad + Pictilisib; first compound 0.005 µM) | relative viability (Daporinad + Pictilisib; first compound 0.01581 µM) | relative viability (R406 + Linsitinib; first compound 0.08 µM) | relative viability (R406 + Linsitinib; first compound 0.253 µM) | relative viability (R406 + Linsitinib; first compound 0.8 µM) | relative viability (R406 + Linsitinib; first compound 2.53 µM) | relative viability (R406 + Linsitinib; first compound 8 µM) | relative viability (R406 + Foretinib; first compound 0.08 µM) | relative viability (R406 + Foretinib; first compound 0.253 µM) | relative viability (R406 + Foretinib; first compound 0.8 µM) | relative viability (R406 + Foretinib; first compound 2.53 µM) | relative viability (R406 + Foretinib; first compound 8 µM) |
| --- | --- | --- | --- | --- | --- | --- | --- | --- | --- | --- | --- | --- | --- | --- | --- | --- | --- | --- | --- |
| LCLC-103H | 1.07 | 1.24 | 0.954 | 0.971 | 0.828 | 0.693 | 0.649 | 0.619 | 0.606 | 1.04 | 1.2 | 0.976 | 1.14 | 0.792 | 0.758 | 0.734 | 0.879 | 0.529 | 0.146 |
| LCLC-97TM1 | 0.418 | 0.443 | 0.38 | 0.29 | 0.244 | 0.2 | 0.185 | 0.284 | 0.26 | 0.192 | 0.191 | 0.218 | 0.172 | 0.182 | 0.89 | 0.963 | 0.965 | 0.935 | 0.327 |
| NCI-H838 | 0.806 | 0.945 | 0.949 | 0.612 | 0.516 | 0.507 | 0.559 | 0.592 | 0.53 | 1.03 | 1.15 | 1.12 | 0.645 | 0.522 | 0.984 | 1.17 | 1.09 | 0.645 | 0.791 |
